Measurements taken from ChEMBL document CHEMBL1124866, “Synthesis and activity of NAcSerAspLysPro analogues on cellular interactions between T-cell and erythrocytes in rosette formation” (1990).
Active and inactive are the calls of the source. The rule behind the calls is not given here. Peptide text beside a SMILES is read from it.

Experiments:
[1] = test system: Jurkat; test: (§1) Activity on rosetting of jurkat T-cells with SRBC at the concentration of 10e-8 M; format: functional, Homo sapiens
[2] = test system: Jurkat; test: (§2) Activity on rosetting of jurkat T-cells with SRBC at the concentration of 10e-6 M; format: functional; conditions: Homo sapiens
[3] = test system: Jurkat; test: (§3) Activity on rosetting of jurkat T-cells with SRBC at the concentration of 10e-9 M; format: functional; conditions: Homo sapiens
[4] = test system: Jurkat; test: Activity on rosetting of jurkat T-cells with SRBC at the concentration of 10e-11 M; Not Significant; format: functional, cell-based; conditions: Homo sapiens
[5] = test system: Jurkat; test: (§4) Activity on rosetting of jurkat T-cells with SRBC at the concentration of 10e-5 M; format: functional, Homo sapiens
[6] = test system: Jurkat; test: as §4; format: functional; conditions: Homo sapiens
[7] = test system: Jurkat; test: Activity on rosetting of jurkat T-cells with SRBC at the concentration of 0 M; format: functional, Homo sapiens
[8] = test system: Jurkat; test: as §2; format: functional, Homo sapiens
[9] = test system: Jurkat; test: as §1; format: functional; conditions: Homo sapiens
[10] = test system: Jurkat; test: (§5) Activity on rosetting of jurkat T-cells with SRBC at the concentration of 10e-10 M; format: functional; conditions: Homo sapiens
[11] = test system: Jurkat; test: (§6) Activity on rosetting of jurkat T-cells with SRBC at the concentration of 10e-4 M; format: functional; conditions: Homo sapiens
[12] = test system: Jurkat; test: (§7) Activity on rosetting of jurkat T-cells with SRBC at the concentration of 10e-7 M; format: functional, Homo sapiens
[13] = test system: Jurkat; test: Activity on rosetting of jurkat T-cells with SRBC at the concentration of 10e-12 M; Not Significant; format: functional, cell-based; conditions: Homo sapiens
[14] = test system: Jurkat; test: (§8) Activity on rosetting of jurkat T-cells with SRBC at the concentration of 10e-11 M; format: functional, Homo sapiens
[15] = test system: Jurkat; test: (§9) Activity on rosetting of jurkat T-cells with SRBC at the concentration of 10e-12 M; format: functional, Homo sapiens
[16] = test system: Jurkat; test: as §3; format: functional, Homo sapiens
[17] = test system: Jurkat; test: as §7; format: functional; conditions: Homo sapiens
[18] = test system: Jurkat; test: as §6; format: functional, Homo sapiens
[19] = test system: Jurkat; test: Activity on rosetting of jurkat T-cells with SRBC at the concentration of 10e-10 M; Not Determined; format: functional, Homo sapiens
[20] = test system: Jurkat; test: (§10) Activity on rosetting of jurkat T-cells with SRBC at the concentration of 10e-13 M; format: functional, Homo sapiens
[21] = test system: Jurkat; test: as §9; format: functional; conditions: Homo sapiens
[22] = test system: Jurkat; test: Activity on rosetting of jurkat T-cells with SRBC at the concentration of 10e-15 M; format: functional, Homo sapiens
[23] = test system: Jurkat; test: Activity on rosetting of jurkat T-cells with SRBC at the concentration of 10e-15 M; Not significant; format: functional, cell-based; conditions: Homo sapiens
[24] = test system: Jurkat; test: (§11) Activity on rosetting of jurkat T-cells with SRBC at the concentration of 10e-14 M; format: functional; conditions: Homo sapiens
[25] = test system: Jurkat; test: as §11; format: functional, Homo sapiens
[26] = test system: Jurkat; test: as §8; format: functional; conditions: Homo sapiens
[27] = test system: Jurkat; test: as §5; format: functional, Homo sapiens
[28] = test system: Jurkat; test: as §10; format: functional; conditions: Homo sapiens

Row | Compound | No. of rosettes/100 Jurkat T cells [1] | inhibition at 1 µM [2] | inhibition at 0.001 µM [3] | No. of rosettes/100 Jurkat T cells [5] | inhibition at 10 µM [6] | No. of rosettes/100 Jurkat T cells [7] | No. of rosettes/100 Jurkat T cells [8] | inhibition at 0.01 µM [9] | inhibition at 0.0001 µM [10] | inhibition at 100 µM [11] | No. of rosettes/100 Jurkat T cells [12] | No. of rosettes/100 Jurkat T cells [14] | No. of rosettes/100 Jurkat T cells [15] | No. of rosettes/100 Jurkat T cells [16] | inhibition at 0.1 µM [17] | No. of rosettes/100 Jurkat T cells [18] | also measured
1 | CC(=O)N[C@@H](CO)C(=O)N[C@@H](CC(=O)O)C(=O)N[C@@H](CCCCN)C(=O)O (Ac-Ser-Asp-Lys-OH) | 48 | 39% | 18% | 37 | 40% | 63 | 38 | 23% | 10% | 44% | 45 | 62 | 59 | 51 | 27% | 35 | inhibition [4]: inactive; inhibition [13]: inactive; No. of rosettes/100 Jurkat T cells [19]: 56
2 | NCCCC[C@H](NC(=O)[C@H](CC(=O)O)NC(=O)[C@@H](N)CO)C(=O)O (H-Ser-Asp-Lys-OH) | 40 | 22% | 32% | 45 | 28% | 63 | 50 | 36% | 32% | 40% | 49 | 40 | 44 | 43 | 22% | 38 | No. of rosettes/100 Jurkat T cells [20]: 51; inhibition at 1 pM [21]: 30%; No. of rosettes/100 Jurkat T cells [22]: 63; inhibition [23]: inactive; inhibition at 10 fM [24]: 14%; No. of rosettes/100 Jurkat T cells [25]: 55; inhibition at 10 pM [26]: 36%; No. of rosettes/100 Jurkat T cells [27]: 43; inhibition at 100 fM [28]: 19%
